{"source": "patent US11584712B2", "about": "“Alkylamine-substituted perthiocarbamates as dual precursors to hydropersulfide and carbonyl sulfide” (The Johns Hopkins University, priority 2020, dated 2023)", "key": {"[1]": {"experiment": "COS release using membrane inlet mass spectrometry (MIMS)", "type": "physicochemical", "details": "precursor 50 μM, NAC 0.25 mM (5 equiv.), pH 7.4 phosphate buffer saline with DTPA, 37° C.", "experimental": "(§1) COS was analyzed using a Hiden HPR-40 MIMS system with a sample cell and membrane probe that have been optimized to detect gases dissolved in aqueous solution as described previously. Cline et al., 2011. A stock solution of N-acetyl-cysteine (25 mM) was prepared in DI water. RSSH precursor stock solutions (5 mM) were prepared in DMSO. These solutions were degassed by purging with nitrogen for 10 min before COS release analysis. Typically, 20 mL phosphate buffer solution (10 mM) was added to the sample cell, degassed and purged with a continuous flow of argon for 15 min. N-acetyl cysteine (200 μL, 25 mM) and RSSH precursor (200 μL, 5 mM) were then injected using a gas tight syringe and ion current at m/z 60 (COS^+) were collected for 2 h (source pressure was approximately 1×10^−7 to 5×10^−7 Torr).\nas §1, with “(COS*)” for “(COS^+)”"}, "[2]": {"experiment": "RSSH generation in the presence of N-acetyl cysteine by UPLC-MS", "type": "physicochemical", "details": "precursor 100 μM, NAC 500 μM, pH 7.4 ammonium bicarbonate buffer with DTPA, 37° C.", "experimental": "[…] The resulting mixture was incubated at 37° C. An aliquot (200 μL) of reaction mixture was withdrawn at specified time points and quenched with 1% formic acid (200 μL). 3-Amino-benzoic acid (50 μM) was added to each sample as internal standard prior to UPLC-MS analysis. To quantify 2a-d generated from these precursors, a calibration curve for each individual cyclic urea with known concentrations was independently generated.\n[…] The resulting mixture was incubated at 37° C. An aliquot ([…]) of reaction mixture was withdrawn at specified time points and quenched with 1% formic acid (200 μL). 3-amino-benzoic acid (50 μM) was added to each sample as internal standard prior to UPLC-MS analysis. To quantify 2a-d generated from these precursors, the calibration curve of each individual cyclic urea with known concentrations was independently generated."}, "[3]": {"experiment": "Kinetics of RSSH release from precursors monitored by HPLC (HPE-IAM trapping)", "type": "physicochemical", "details": "precursor 100 μM, HPE-IAM 5 mM, pH 7.4 phosphate buffer with DTPA, 37° C.", "experimental": "(§2) Precursors 7a-d were dissolved in DMSO to afford 10 mM stock solutions. HPE-IAM was dissolved in DMSO to obtain a 100 mM stock solution. […] This solution was pre-incubated for 10 min at 37° C. and then precursor 7a-d (30 μL, 10 mM) were independently added into the mixture. The resulting solution was incubated at 37° C. At different time points, an aliquot of 200 μL was taken and quenched with 200 μL […] solution. These samples were stored at 0° C. until HPLC analysis was performed. The sample (20 μL) was injected into a high-performance liquid chromatography (HPLC) equipped with Phenomenex C-18 reverse phase column (250 mm×4.6 mm, 5 μm). HPLC Method: mobile phase A (H2O) and mobile phase B (ACN), flow rate: 1 mL/min, run time: 20 min, the gradient elution method: 10% to 40% B from 0 to 12 min, 40% to 80% B from 12 to 20 min. The elution was monitored by a UV detector at 275 nm. A calibration curve was generated using RSS-HPE-AM 9 to quantify RSSH generation from 7a-d.\nas §2, with “by a variable UV detector” for “by a UV detector”"}, "H9c2 cells": {"system": "H9c2 cells", "experiment": "Cytotoxicity study with SYTOX Green nucleic acid stain", "type": "cell-based, rat", "details": "24 h exposure, 0-150 μM", "experimental": "H9c2(2-1) embryonic rat heart myoblasts were obtained from the American Type Culture Collection. Cells were grown in Dulbecco's […] (DMEM), supplemented with fetal bovine serum (FBS) 10%, penicillin 100 U/mL and streptomycin 100 μg/mL. They were propagated in T75-flasks, split before reaching 70-80% confluence (usually every day or every second day), and used within 11 passages. Cells were passaged to tissue culture treated 96-well microtiter plates at the specified density in 180 μL volumes and incubated for 24 h.\nCells were seeded at a density of 1×10^4 cells/well. […] Then, 100 μL of media containing 3 μM SYTOX™ Green nucleic acid stain (Invitrogen) was added and the cells were incubated for 2 h before fluorescence readings were obtained at 485Ex/538Em (Step 1). Finally, an additional 100 μL of media containing 3 μM SYTOX™ and 0.2% Triton X-100 was added in order to permeabilize all cells and incubated for 1 h before fluorescence values measured (Step 2). The relative % cells surviving was calculated as a 100% minus the ratio of the fluorescence value of Step 1 over Step 2 (% cells surviving=100%−(FL538 (Step 1)/FL538(Step 2)).\nCells were seeded at a density of 1×10^4 cells/well. […] The relative % cells surviving was calculated as a 100% minus the ratio of the fluorescence value of Step 1 over Step 2 (% cells surviving=100%−(FL538 (Step 1)/FL538(Step 2))."}, "[4]": {"experiment": "RSSH generation and quantification of cyclic ureas by UPLC-MS with HPE-IAM or NEM trap", "type": "physicochemical", "experimental": "Precursor 1a was dissolved in DMSO to afford a 1 mM stock solution. Similarly, HPE-IAM and N-ethyl maleimide (NEM) were independently dissolved in DMSO to obtain 50 mM stock solutions. To a 20 mL scintillation vial, HPE-IAM or NEM (30 μL, 50 mM) was added in pH 7.4 ammonium bicarbonate buffer (2.94 mL) containing the DTPA (100 μM). The resulting solution was pre-incubated at 37° C. for 10 min. Precursor 1a (30 μL, 1 mM) was then added into the mixture and incubated for 15 min at 37° C. An aliquot of the reaction mixture (500 μL) was withdrawn, 4-hydroxyphenylacetamide (10 μM) was added as internal standard, and analyzed using UPLC-MS as follows: Mobile phase: 0-1 min 90% water+0% ACN+10% formic acid (0.1%); 1-7.5 min gradient up to 10% water+80% ACN+10% formic acid (0.1%); 7.5-8.4 min 10% water+80% ACN+10% formic acid (0.1%); 8.4-8.5 min gradient up to 90% water+0% ACN+10% formic acid (0.1%), 8.5-10 min 90% water+0% ACN+10% formic acid (0.1%). Flow rate=0.3 mL/min. […] These studies were conducted at least in triplicate and representative spectra are presented.\nPrecursors 7a-d (10 μM) were independently incubated with HPE-IAM (500 μM) in pH 7.4 ammonium bicarbonate buffer (50 mM) containing DTPA (100 μM) at 37° C. The reaction mixture (500 μL) was analyzed using UPLC-MS. To quantify 2a-d generated from these precursors, a calibration curve of each individual cyclic urea with known concentrations was independently generated.\nPrecursor 1a was dissolved in DMSO to afford a 1 mM stock solution. Similarly, HPE-IAM was dissolved in DMSO to obtain a 50 mM stock solution. To a 20 mL scintillation vial, HPE-IAM (30 μL, 50 mM) was added in pH 7.4 ammonium bicarbonate buffer (2.94 mL) containing the DTPA (100 μM). The resulting solution was pre-incubated at 37° C. for 10 min. Precursor 1a (30 μL, 1 mM) was then added into the mixture and incubated for 15 min at 37° C. An aliquot of the reaction mixture (500 μL) was withdrawn and analyzed using UPLC-MS as follows: Mobile phase: 0-1 min 90% water+0% ACN+10% formic acid (0.1%); 1-7.5 min gradient up to 10% water+80% ACN+10% formic acid (0.1%); 7.5-8.4 min 10% water+80% ACN+10% formic acid (0.1%); 8.4-8.5 min gradient up to 90% water+0% ACN+10% formic acid (0.1%), 8.5-10 min 90% water+0% ACN+10% formic acid (0.1%). Flow rate=0.3 mL/min. The mass signals for product of RSSH trapping with HPE-IAM were obtained via deconvolution using MassLynx 4.1 software. These studies were conducted at least in triplicate and representative spectra are presented.\nPrecursors 7a-d (10 μM) were independently incubated with HPE-IAM (500 μM) in pH 7.4 ammonium bicarbonate buffer (50 mM) containing DTPA (100 μM) at 37° C. This reaction mixture was analyzed by UPLC-MS as follows: Mobile phase: 0-1 min 90% water+0% ACN+10% formic acid (0.1%); 1-7.5 min gradient up to 10% water+80% ACN+10% formic acid (0.1%); 7.5-8.4 min 10% water+80% ACN+10% formic acid (0.1%); 8.4-8.5 min gradient up to 90% water+0% ACN+10% formic acid (0.1%), 8.5-10 min 90% water+0% ACN+10% formic acid (0.1%). Flow rate=0.3 mL/min. To quantify 2a-d generated from these precursors, a calibration curve of each individual cyclic urea with known concentrations was independently generated."}}}
{"compound": "COC(=O)C(NC(C)=O)C(C)(C)SSC(=O)N(C)CCCN", "note": "(stereo not shown) [Precursor 7d, 3-(((3-acetamido-4-methoxy-2-methyl-4-oxobutan-2-yl)disulfannecarbonyl)(methyl)amino)propan-1-aminium]", "values": [{"measurement": "COS release (m/z=60 signal)", "setting": "[1]", "value": "produce mainly COS"}, {"measurement": "Byproduct % (yield of cyclic urea 2a-d)", "setting": "[2]", "value": "5.9 ± 0.4", "unit": "%"}, {"measurement": "Hydropersulfide Yield (%)", "setting": "[3]", "value": "82 ± 1", "unit": "%"}]}
{"compound": "CN1CCNC1=O", "note": "[byproduct 2b, 1-methylimidazolidin-2-one]", "values": [{"measurement": "cytotoxicity toward H9c2 cells", "setting": "H9c2 cells", "value": "no toxicity"}]}
{"compound": "CNCCN(C)C(=O)SSCC(NC(C)=O)C(=O)OC", "note": "(stereo not shown) [Precursor 1a, 2-(((2-Acetamido-3-methoxy-3-oxopropyl)disulfannecarbonyl)(methyl)amino)-N-methylethan-1-aminium]", "values": [{"measurement": "yield of byproduct 2a", "setting": "[4]; NEM 50 equiv., pH 7.4 buffer", "value": 74, "unit": "%"}, {"measurement": "yield of cyclic urea byproduct", "setting": "[4]; precursor 10 μM, HPE-IAM 500 μM (50 equiv.), pH 7.4 ammonium bicarbonate buffer, 37° C.", "value": 52, "unit": "%"}, {"measurement": "byproduct 2a formation", "setting": "[4]; precursor 10 μM, NEM 500 μM, pH 7.4 ammonium bicarbonate buffer, 37° C., 15 min", "value": "7.4 ± 0.2", "unit": "µM"}]}
